According to the supplement of paper PMC9549728:
Where a name gives a salt, the structure may show the parent alone.

Experiments:
Test in all cases: IC50 (viability, PrestoBlue) (log10 nM)
Settings in all cases: exposure time: 72 h
[1] = tested on: murine gastric organoid diffuse (Cdh1 fl/fl; Apc fl/fl)
Protocol: (§1)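 Murine gastric corpus organoids (normal uninduced; RAS-activated Kras G12D/Tp53 R172H; diffuse Cdh1/Apc loss; WNT-activated Apc loss/Tp53 R172H) were seeded in Matrigel into pre-spotted 384-well plates. The plates held a 196-compound library at 6.7 nM to 25,004 nM (9 doses) and were incubated 72 h. Viability was read by PrestoBlue fluorescence (560/590 nm). IC50 came from non-linear regression (Prism), reported as log10 IC50 in nM, mean of 3 passages x 2 wells.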

[2] = tested on: murine gastric organoid WNT-activated (Apc fl/fl; Tp53 R172H)
Protocol: as §1

[3] = tested on: murine normal gastric organoid
Protocol: as §1

[4] = tested on: murine gastric organoid RAS-activated (Kras G12D; Tp53 R172H)
Protocol: as §1

Row | Compound | IC50 (log10 nM) [1] | IC50 (log10 nM) [2] | IC50 (log10 nM) [3] | IC50 (log10 nM) [4]
1 | CN1CCN(c2ccc3nc(-c4c(N)c5c(F)cccc5[nH]c4=O)[nH]c3c2)CC1 [Dovitinib] | 3.4 | 3.41 | 3.21 | 3.46
2 | COc1cccc2c1C(=O)c1c(O)c3c(c(O)c1C2=O)C[C@@](O)(C(=O)CO)C[C@@H]3O[C@H]1C[C@H](N)[C@H](O)[C@H](C)O1 [Doxorubicin] | 2.23 | 2.2 | 2.02 | 2.14
3 | Nc1ccccc1NC(=O)c1ccc(CNC(=O)OCc2cccnc2)cc1 [Entinostat] | 3.39 | 3.99 | 4.22 | 3.36
4 | C#Cc1cccc(Nc2ncnc3cc(OCCOC)c(OCCOC)cc23)c1 [Erlotinib] | 2.97 | 2.67 | 2.58 | > 4.4
5 | COc1cc([C@@H]2c3cc4c(cc3[C@@H](O[C@@H]3O[C@@H]5CO[C@@H](C)O[C@H]5[C@H](O)[C@H]3O)[C@H]3COC(=O)[C@H]23)OCO4)cc(OC)c1O [Etoposide] | 3.06 | 3.07 | 2.67 | 2.89
6 | CO[C@H]1C[C@@H]2CC[C@@H](C)[C@@](O)(O2)C(=O)C(=O)N2CCCC[C@H]2C(=O)O[C@H]([C@H](C)C[C@@H]2CC[C@@H](OCCO)[C@H](OC)C2)CC(=O)[C@H](C)/C=C(\C)[C@@H](O)[C@@H](OC)C(=O)[C@H](C)C[C@H](C)/C=C/C=C/C=C/1C [Everolimus] | 3.31 | 3.26 | 3.4 | 3.26
7 | O=c1[nH]c(=O)n([C@H]2C[C@H](O)[C@@H](CO)O2)cc1F [Floxuridine] | 3.8 | 1.61 | 2.96 | 3.16
8 | COc1ccc(/C=C\c2cc(OC)c(OC)c(OC)c2)cc1OP(=O)(O)O [Fosbretabulin disodium] | 2.47 | 1.85 | < 0.826 | 2.23
9 | CN(C)c1ccccc1CN1CCCN(Cc2ccccc2N(C)C)C1c1ccncc1 [GANT-61] | 2.53 | 2.6 | 1.27 | 1.22
10 | Cn1nccc1Nc1nccc(-c2ccn([C@H](CO)c3ccc(Cl)c(F)c3)c(=O)c2)n1 [GDC-0994] | 3.23 | 2.88 | 3.71 | 4.35
11 | CC(C)c1cc(-c2n[nH]c(=O)n2-c2ccc3c(ccn3C)c2)c(O)cc1O [Ganetespib] | 1.5 | < 0.826 | 1.59 | 1.59
12 | COc1cc2ncnc(Nc3ccc(F)c(Cl)c3)c2cc1OCCCN1CCOCC1 [Gefitinib] | 2.65 | 2.38 | 1.98 | 4.06
13 | Nc1ccn([C@@H]2O[C@H](CO)[C@@H](O)C2(F)F)c(=O)n1 [Gemcitabine] | 1.53 | 1.74 | 1.23 | 1.54
14 | COC(=O)C[C@](O)(CCCC(C)(C)O)C(=O)O[C@@H]1C(OC)=C[C@]23CCCN2CCc2cc4c(cc2[C@H]13)OCO4 [Homoharringtonine] | 1.82 | 0.956 | 1.91 | 1.56
15 | C=CCc1ccc(O)c(-c2ccc(O)c(CC=C)c2)c1 [Honokiol] | 4.28 | 3.87 | 3.97 | 4.12
16 | CC(C)n1nc(-c2ccc3oc(N)nc3c2)c2c(N)ncnc21 [INK 128] | 1.42 | > 4.4 | 1.21 | 1.45

Row | Compound | IC50 (log10 nM) [1] | IC50 (log10 nM) [2] | IC50 (log10 nM) [3] | IC50 (log10 nM) [4]
17 | C=CC(=O)N1CCC[C@@H](n2nc(-c3ccc(Oc4ccccc4)cc3)c3c(N)ncnc32)C1 [Ibrutinib] | 2.53 | 2.48 | 2.2 | 4.23
18 | CC(=O)[C@]1(O)Cc2c(O)c3c(c(O)c2[C@@H](O[C@H]2C[C@H](N)[C@H](O)[C@H](C)O2)C1)C(=O)c1ccccc1C3=O [Idarubicin hydrochloride] | 1.41 | 0.851 | 1.1 | < 0.826
19 | CC(C)C[C@H](NC(=O)CNC(=O)c1cc(Cl)ccc1Cl)B(O)O [Ixazomib (MLN9708)] | 2.51 | 2.6 | 2.8 | 2.12
20 | Cc1cc(Nc2ncc(Cl)c(Nc3ccccc3S(=O)(=O)C(C)C)n2)c(OC(C)C)cc1C1CCNCC1 [LDK378] | 2.8 | 2.55 | 2.84 | 3.08
21 | COC(=O)N[C@@H](C)CNc1nccc(-c2cn(C(C)C)nc2-c2cc(Cl)cc(NS(C)(=O)=O)c2F)n1 [LGX818] | < 0.826 | 2.62 | 3.91 | < 0.826
22 | CS(=O)(=O)CCNCc1ccc(-c2ccc3ncnc(Nc4ccc(OCc5cccc(F)c5)c(Cl)c4)c3c2)o1 [Lapatinib] | 2.84 | 2.43 | 2.54 | 3.12
23 | Cc1ccc(F)c(NC(=O)Nc2ccc(-c3cccc4[nH]nc(N)c34)cc2)c1 [Linifanib] | 4.2 | 3.77 | 3.7 | 3.05
24 | C[C@]1(O)C[C@@H](c2nc(-c3ccc4ccc(-c5ccccc5)nc4c3)c3c(N)nccn32)C1 [Linsitinib] | 3.68 | 2.69 | 2.84 | < 0.826
25 | CNC(=O)[C@@H](NC(=O)[C@H](CC(C)C)[C@H](O)C(=O)NO)C(C)(C)C [Marimastat] | > 4.4 | 4.02 | 4.37 | < 0.826
26 | Cc1ccc(NC(=O)c2ccc(CN3CCN(C)CC3)cc2)cc1Nc1nc(-c2cccnc2)cs1 [Masitinib mesylate] | 4.25 | 3.35 | 3.68 | 2.38
27 | N[C@@H](Cc1ccc(N(CCCl)CCCl)cc1)C(=O)O [Melphalan] | 3.34 | 2.26 | 3.09 | 3.27
28 | CN(Cc1cnc2nc(N)nc(N)c2n1)c1ccc(C(=O)N[C@@H](CCC(=O)O)C(=O)O)cc1 [Methotrexate] | > 4.4 | 4.36 | 3.41 | 3.43
29 | CO[C@@]12[C@H](COC(N)=O)C3=C(C(=O)C(C)=C(N)C3=O)N1C[C@@H]1N[C@@H]12 [Mitomycin C] | 2.68 | 2.7 | 2.64 | 2.5
30 | O=C1c2c(O)ccc(O)c2C(=O)c2c(NCCNCCO)ccc(NCCNCCO)c21 [Mitoxantrone dihydrochloride] | 2.41 | 3.38 | 2.13 | 2.2
31 | CCOc1cc2ncc(C#N)c(Nc3ccc(OCc4ccccn4)c(Cl)c3)c2cc1NC(=O)/C=C/CN(C)C [Neratinib] | 3.13 | 2.94 | 2.48 | > 4.4
32 | Cc1sc2c(c1C)C(c1ccc(Cl)cc1)=N[C@@H](CC(=O)Nc1ccc(O)cc1)c1nnc(C)n1-2 [OTX-015] | 2.47 | 2.85 | 2.22 | 3.11
